# Data taken from paper PMC8920872 (Toxicology Reports, 2022).
# Like-named read-outs stand apart in the source and are kept apart here.
# Tests used:
# Assay type in all cases: cell-based
# [1] = test system: JIMT-1 breast cancer cells; assay: MTT dose response assay, JIMT-1; conditions: Homo sapiens, JIMT-1, 72 h
# [2] = test system: MCF-10A normal-like breast epithelial cells; assay: MTT dose response assay, MCF-10A; conditions: Homo sapiens, 72 h
# [3] = test system: MCF-7 breast cancer cells; assay: MTT dose response assay, MCF-7; conditions: Homo sapiens, MCF7, 72 h
# [4] = read-out: IC50 (mean of three repeats ± SD)
"IC50 [1, 4] [µM]",IC50 [1] [µM],IC50 [3] [µM],Compound,"IC50 [2, 4] [µM]",IC50 [2] [µM]
11.1,–,–,"C=C[C@@]12COC(=O)C(=C)[C@@H]1[C@@H](O)[C@H](C(=C)C(=O)OC)[C@@H](OC(=O)C(=C)CO)C2 [Vernodalol, reference compound]",12.1,–
–,1.7 ± 0.3,15.9 ± 0.6,"C=C[C@@]12COC(=O)C(=C)[C@@H]1[C@H]1OC(=O)C(=C)[C@@H]1[C@@H](O)C2 [Vernolepin (5), Vernolepin]",–,2.3 ± 0.2
